Measurements: article PMC10788917 (Journal of Medicinal Chemistry, 2023)
Numbering of substitutions follows the chain as printed.

Experiments:
Assay in all cases: HDAC8 mutant biochemical assay
[1] = target: T1, HDAC8 Cys102Ser/Cys153Ser (Homo sapiens, UniProt Q9BY41, C102S/C153S); details: read-out: IC50 [μM] @ 100 nM HDAC8: A Cys102Ser/Cys153Ser, 1 h preincubation
T1 construct: made in house
T1 sequence (Q9BY41 1-377 C102S/C153S): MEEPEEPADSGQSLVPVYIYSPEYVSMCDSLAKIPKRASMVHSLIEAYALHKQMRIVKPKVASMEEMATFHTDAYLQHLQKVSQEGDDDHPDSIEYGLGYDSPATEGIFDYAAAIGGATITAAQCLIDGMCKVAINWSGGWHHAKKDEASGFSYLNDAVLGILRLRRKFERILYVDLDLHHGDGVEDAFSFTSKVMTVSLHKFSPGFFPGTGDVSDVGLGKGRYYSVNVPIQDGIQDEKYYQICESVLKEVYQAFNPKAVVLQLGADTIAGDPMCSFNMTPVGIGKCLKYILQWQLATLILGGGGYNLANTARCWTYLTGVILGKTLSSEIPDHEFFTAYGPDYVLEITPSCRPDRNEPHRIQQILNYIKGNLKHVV
Description: (§1) HDAC8 mutant variants were generated, produced, and further purified as described previously.[32] Cysteines 28 and 314 were exchanged with serine using the following primer pairs: HD8_C28S_for, […]; HD8_C28S_rev, […]; HD8_C314S_for, […]; HD8_C314S_rev, […].
(§2) The enzyme activity assay was performed in assay buffer [25 mM Tris-HCl (pH 8.0), 50 mM NaCl, and 0.001% (v/v) Pluronic F-68] in black half-area 96-well microplates (Greiner Bio-One). For the initial screening, 10 nM HDAC8 was preincubated with the indicated compounds at 250 μM for 2 h at 30 °C. […] The reaction was initiated by the addition of 20 μM Boc-Lys(TFA)-AMC (Bachem). After substrate conversion at 30 °C for 15 min for HDAC8 and 1 h for HDAC8 mutants and HDAC4, the reaction was stopped by adding 1.67 μM suberoylanilide trifluoromethylketone (SATFMK). The deacetylated substrate was cleaved with 0.42 mg/mL trypsin to release fluorescent 7-amino-4-methylcoumarin (AMC), which was detected with a microplate reader (PHERAstar FS […]) with fluorescence excitation at 360 nm and emission at 460 nm. IC50 values were calculated by generating dose–response curves in GraphPad Prism 6 and fitting those to a four-parameter logistic model.

[2] = target: T2, HDAC8 Cys102Ser/Cys153Ser/Cys314Ser (Homo sapiens, UniProt Q9BY41, C102S/C153S/C314S); details: read-out: IC50 [μM] @ 100 nM HDAC8: H Cys102Ser/Cys153Ser/Cys314Ser, 1 h preincubation
T2 construct: made in house
T2 sequence (Q9BY41 1-377 C102S/C153S/C314S): T1 sequence (Q9BY41 1-377 C102S/C153S) with C314S
Description: as §1, §2

[3] = target: T3, HDAC8 Cys102Ser/Cys153Ser/Cys125Ser (Homo sapiens, UniProt Q9BY41, C102S/C125S/C153S); details: read-out: IC50 [μM] @ 100 nM HDAC8: C Cys102Ser/Cys153Ser/Cys125Ser, 1 h preincubation
T3 construct: made in house
T3 sequence (Q9BY41 1-377 C102S/C125S/C153S): T1 sequence (Q9BY41 1-377 C102S/C153S) with C125S
Description: as §1, §2

[4] = target: T4, HDAC8 Cys102Ser/Cys153Ser/Cys28Ser (Homo sapiens, UniProt Q9BY41, C102S/C153S/C28S); details: read-out: IC50 [μM] @ 100 nM HDAC8: B Cys102Ser/Cys153Ser/Cys28Ser, 1 h preincubation
T4 construct: made in house
T4 sequence (Q9BY41 1-377 C28S/C102S/C153S): T1 sequence (Q9BY41 1-377 C102S/C153S) with C28S
Description: as §1, §2

SMILES | IC50 [1] | IC50 [2] | IC50 [3] | IC50 [4]
C[n+]1ccccc1I [A3+] | 59 ± 4 µM | 92 ± 10 µM | 65 ± 6 µM | > 130 µM
C[n+]1ccc(I)cc1 [C3+] | 68 ± 5 µM | 14 µM | 81 ± 4 µM | > 130 µM
C#Cc1cc[n+](C)cc1 [C6+] | 14 ± 1 µM | 100 ± 14 µM | 15 ± 1 µM | 67 ± 6 µM
C[n+]1cccnc1Cl [D1+] | 60 ± 9 µM | > 130 µM | 82 ± 4 µM | > 130 µM
C[n+]1cccnc1Br [D2+] | 23 ± 3 µM | > 130 µM | 52 ± 7 µM | > 130 µM
C[n+]1cccnc1I [D3+] | 14 ± 1 µM | 20 ± 1 µM | 14 ± 1 µM | 62 ± 3 µM
C#Cc1nccc[n+]1C [D6+] | > 130 µM | – | > 130 µM | > 130 µM
C[n+]1cncc(Br)c1 [F2+] | 29 ± 1 µM | 74 ± 11 µM | 56 ± 5 µM | > 130 µM
C[n+]1cncc(I)c1 [F3+] | 16 ± 3 µM | 19 ± 2 µM | – | > 130 µM
C#Cc1c[n+](C)ccn1 [G6+] | 97 ± 34 µM | > 130 µM | 126 ± 17 µM | 106 ± 10 µM
